The subject of the assay is F. oxysporum. Type of assay: cell-based, Fusarium oxysporum. Conditions: pH 9.73. As to the method:
The minimum inhibitory concentration (MIC) of W1 against F. oxysporum and S. sclerotiorum was determined using the paper disk diffusion method ([Wen et al., 2014]; [Rao et al., 2015]). In brief, the purified W1 was diluted into 20 mM piperazine buffer (pH 9.73) with final concentrations of 0.464, 0.232, 0.116, 0.058, and 0.029 μg/μl, respectively. On paper disks placed 2 cm from the hyphal margin of fungus on a PDA plate, 60 μl of serially diluted samples were added. Later, the plate was incubated at 30°C for 24–48 h. The MIC was determined as the lowest concentration of W1 that could inhibit visible mold growth and was calculated as the total peptide concentration added to each paper disk (microgram per disk). The piperazine buffer (20 mM) was used as the blank control. All assays were repeated three times independently.

≈ marks a conversion by molar mass, not a printed value. Peptide text beside a SMILES is read from it.

The text below walks through data of publication PMC9237960, “Identification of a New Antifungal Peptide W1 From a Marine Bacillus amyloliquefaciens Reveals Its Potential in Controlling Fungal Plant Diseases” (Frontiers in Microbiology, 2022).

Consider `CC[C@H](C)[C@H](NC(=O)[C@H](CC(C)C)NC(=O)[C@H](CC(C)C)NC(=O)[C@H](Cc1ccccc1)NC(=O)[C@H](Cc1ccc(O)cc1)NC(=O)[C@H](CC(C)C)NC(=O)[C@@H](NC(=O)[C@H](C)NC(=O)[C@H](Cc1ccccc1)NC(=O)[C@H](CCSC)NC(=O)[C@H](CC(C)C)NC(=O)[C@@H](NC(=O)[C@@H](NC(=O)[C@@H]1CCCN1C(=O)[C@@H](NC(=O)[C@@H](NC(=O)[C@@H](NC(=O)CN)[C@@H](C)O)[C@@H](C)CC)C(C)C)[C@@H](C)CC)[C@@H](C)CC)C(C)C)C(=O)N[C@@H](CCCNC(=N)N)C(=O)N1CCC[C@H]1C(=O)N[C@@H](CCC(N)=O)C(=O)O` [W1] (H-GTIVPIILMFAVLYFLLIRPQ-OH), for which the “MIC against F. oxysporum” value came to 58 µg/mL (≈ 24 µM).
